The source of these data is patent US7132454B2, “HEXIM1 as a suppressor of HIV replication and cardiac hypertrophy” (Regents of the University of California, priority 2004, dated 2006).

In one series the test system is cardiac hypertrophy. Kind of series: HMBA infusion in patients having or susceptible to cardiac hypertrophy. To be noted: 24 g/m^2/d in 10-day courses. Type of series: in vivo. The protocol: Genetic testing, and/or ECG and echocardiography are used to diagnose patients susceptible to hypertrophic cardiomyopathy using methods described by Charron et al. (1997 & 2003). For genetic testing, candidate patients are from families involved in genetic studies in whom genetic analyses are performed and the causative mutation identified. Patients are identified as being at risk of inheriting the disease gene, i.e., they have a first-degree relative clinically affected by hypertrophic cardiomyopathy. The major diagnostic criteria for echocardiography are a left ventricular wall thickness >13 mm and, for ECG, abnormal Q waves, left ventricular hypertrophy, and marked ST-T changes. Clinical evaluation is performed, and blood samples are obtained. Using methods adapted from Andreeff et al. (1992), patients diagnosed as having or susceptible to cardiac hypertrophy are given HMBA treatment. A 5% solution of HMBA (NSC-95580) in distilled water is provided in 500-ml infusion bottles (25 g total per bottle). HMBA is administered at a dose of 24 g/m^2/d in 10-day courses, followed by an 18- to 75-day observation period. Plasma levels are determined daily (at 24 hours into the infusion). […] HMBA plasma levels are determined using HPLC.

Another series relates to HSV. The settings on record: cited from earlier work.
For another series, the system named is HIV. The settings on record: cited from earlier work.
Series [1] deals with human vascular smooth muscle cell (VSMC). To be noted: cited from earlier work.
In series [2] the test system is right ventricular myocytes. Nature of the series: myocardial infarction model, HMBA by osmotic minipump; ventricular myocyte hypertrophy and action potential. In kind it is in vivo, male Wistar rats. The text has this:
In a method adapted from Perrier et al. (2004), myocardial infarction (MI) is induced in 250 to 280 g male Wistar rats by left coronary artery ligation. Only post-MI hearts that show a transmural scar are used. An osmotic minipump (Alzet 2ML4) is implanted subcutaneously at the time of surgery to deliver varying amounts of HMBA or other HPC. Control animals receive carrier solution only. Cellular responses are examined over time using whole-cell, patch-clamp techniques on right ventricular myocytes. Animals are euthanized 1 and 3 weeks after surgery with intraperitoneal injection of sodium pentobarbital. Ventricular myocytes are isolated enzymatically. Cellular hypertrophy is monitored by 2-photon microscopy (Zeiss LSM 510 NLO) to calculate cell volume and the whole-cell patch-clamp technique is used to measure membrane capacitance, an electrical index of membrane surface area. To measure cell volume, the voltage-sensitive dye 1-(3-sulfonatopropyl)-[…][b-[2-(di-n-butylamino)-6-naphthyl]vinyl]pyridium betaine (di-4-ANEPPS)-loaded cells are illuminated at 840 nm with a mode-locked Ti:sapphire laser (Mira 900, Coherent) and recorded in 3D. Images of spherical beads (Molecular Probes) are recorded under the same conditions to calculate the point spread function. Deconvolution is performed with Huygens (Bitplane AG). […] AP and K^+ are measured. […]

For the compound `CC(=O)NCCCCCCNC(C)=O` [HMBA, Hexamethylene bisacetamide], the “cardiac hypertrophy by morphologic analyses” value with cardiac hypertrophy (certain patients) is “reduces cardiac hypertrophy”. Besides, the most prominent toxicity entry in the series on cardiac hypertrophy (patients) is “thrombocytopenia, generally reversible on cessation of administration”. Also, in the series with HSV, the “activation of HSV” value is on record as “activate viruses”. Moreover, the “activation of HIV” value with HIV was “activate viruses”. In series [1], the VSMC proliferation result was “inhibit human vascular smooth muscle cell (VSMC) proliferation”. Moreover, the action potential entry in series [2] (rats after myocardial infarction, 1 and 3 weeks) was “normal action potential”. In addition, the cellular hypertrophy result in series [2] (rats, three weeks after myocardial infarction) is recorded as “no signs of cellular hypertrophy”.
